According to US11759509B2, “WT1 antigen peptide conjugate vaccine” (Sumitomo Pharma Co., Ltd., priority 2013, dated 2023):
Positions of bridges follow the written chain, without caps; N, C: chain ends. Residues, ends and D or L forms follow the SMILES beside them. Chains are numbered I, II in the order given. No end group written: not given here.

Key:
[1] = target: ERAP1 (Homo sapiens, UniProt Q9NZ08); assay: Time-course changes of trimming of N-terminal amino acid by ERAP1; assay type: biochemical; details: room temperature
Experimental: Time-Course Changes of Trimming of N-Terminal Amino Acid by ERAP1
30 μl of ERAP1 (2.0 mg/ml) in PBS buffer solution was added to 258 μl of Tris·HCl buffer. DMSO solution (12.0 μl) of 10 mM each peptide was added to the aforementioned ERAP1 solution, and the mixture was blended well and stood at room temperature. 1.0, 2.0, 4.0, 8.0 hr later, 50 μl of a sample was added to 150 μl of MeOH to terminate the reaction, 25 μl was injected into UFLC (analysis conditions shown below), and AUC of the object peptide was determined. […] Concentration of SOLUTION B was raised from 1.0% to 70% from 0.0 min to 5.0 min • 2. Concentration of SOLUTION B was raised from 1.0% to 50% from 0.0 min to 5.0 min • object peptide: […]

[2] = physchem; details: for solubility at 90 min: pH 6; for solubility thermodynamic at 90 min: pH 7.4
Experimental: Measurement of Solubility
(§1) 75% aqueous solution of disodium hydrogen phosphate and 5.53% aqueous solution of citric acid were mixed, and respective buffers (pH 6.0 and 7.4) were prepared.
(§2) About 1 mg of a test product was measured, an isotonic buffer (0.5 mL) was added, and this was used as a test solution. The prepared test solution was shaken at room temperature for 90 min (shaking conditions: RECIPRO SHAKER SR-1N manufactured by TAITEC, Speed=8), centrifuged (15000 rpm, 5 min, room temperature), and the supernatant after centrifugation was used as a test solution.
(§3) About 1 mg of the test product was accurately measured, dissolved in 0.1% TFA water/acetonitrile=1/1, made the total amount 10 mL, and this was used as a standard solution of the test product.
(§4) The standard solution of the test product and the test solution were analyzed by HPLC (analysis conditions described in Table 59), and the solubility of the test product was calculated from the peak area ratio of the standard solution.
(§5) • column: ChemcoPack Quicksorb (4.6 mmφ×150 mm, 5 μm) manufactured by Chemco Scientific Co., Ltd. • mobile phase: SOLUTION A; 0.1% TFA water, SOLUTION B; 0.1% TFA acetonitrile solution • column temperature: room temperature • flow rate: 1 mL/min • detection wavelength: UV 254 nm, 230 nm (2 wavelength detection) • sample injection volume: 10 μL

[3] = Measurement of solubility in isotonic buffer (pH 6.0 and 7.4); details: isotonic disodium hydrogen phosphate/citric acid buffer
Experimental: Measurement of Solubility
as §1, §2, §3, §4, §5

ERAP1, sequence (Q9NZ08 whole entry): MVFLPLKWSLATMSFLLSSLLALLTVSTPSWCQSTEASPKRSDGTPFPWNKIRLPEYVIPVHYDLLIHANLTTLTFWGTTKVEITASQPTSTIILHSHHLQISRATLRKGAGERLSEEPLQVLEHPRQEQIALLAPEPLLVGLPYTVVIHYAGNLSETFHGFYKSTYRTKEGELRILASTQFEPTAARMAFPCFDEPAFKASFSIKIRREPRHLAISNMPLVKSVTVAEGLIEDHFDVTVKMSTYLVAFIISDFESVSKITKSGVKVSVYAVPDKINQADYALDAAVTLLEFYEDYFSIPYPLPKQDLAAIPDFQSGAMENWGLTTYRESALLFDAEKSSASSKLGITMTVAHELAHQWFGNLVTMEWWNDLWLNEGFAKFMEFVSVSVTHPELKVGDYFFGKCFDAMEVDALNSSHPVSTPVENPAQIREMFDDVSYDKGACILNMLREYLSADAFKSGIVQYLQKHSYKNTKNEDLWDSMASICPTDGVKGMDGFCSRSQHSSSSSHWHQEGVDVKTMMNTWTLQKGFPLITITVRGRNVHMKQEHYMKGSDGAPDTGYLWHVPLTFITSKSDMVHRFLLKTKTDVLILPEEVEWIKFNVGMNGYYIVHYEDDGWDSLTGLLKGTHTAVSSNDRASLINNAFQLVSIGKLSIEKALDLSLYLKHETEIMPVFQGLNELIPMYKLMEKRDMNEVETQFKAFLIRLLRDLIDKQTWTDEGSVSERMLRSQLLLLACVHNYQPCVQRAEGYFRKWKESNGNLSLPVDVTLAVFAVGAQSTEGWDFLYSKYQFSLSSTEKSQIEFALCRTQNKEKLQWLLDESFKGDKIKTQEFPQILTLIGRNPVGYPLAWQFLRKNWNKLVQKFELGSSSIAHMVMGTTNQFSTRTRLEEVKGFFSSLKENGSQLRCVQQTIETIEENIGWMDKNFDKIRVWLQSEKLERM

Molecule | solubility at 90 min [2] [µg/mL] | solubility thermodynamic at 90 min [2] [µg/mL] | also measured
CALLPAVPSL [Example 3] | – | – | formation rate (%) of the peptide obtained by trimming, 1 hr later [1]: 65.5%; formation rate (%) of the peptide obtained by trimming, 2 hr later [1]: 50.6%; formation rate (%) of the peptide obtained by trimming, 4 hr later [1]: 13.5%; formation rate (%) of the peptide obtained by trimming, 8 hr later [1]: 0%
CSCC[C@H](NC(=O)[C@H](CCC(N)=O)NC(=O)[C@H](CC(C)C)NC(=O)[C@H](Cc1c[nH]cn1)NC(=O)[C@H](CO)NC(=O)[C@H](CC(C)C)NC(=O)[C@H](CCCCN)NC(=O)[C@H](Cc1ccccc1)NC(=O)[C@H](Cc1ccc(O)cc1)NC(=O)[C@H](CCCNC(=N)N)NC(=O)[C@H](CCCCN)NC(=O)[C@H](CC(N)=O)NC(=O)[C@@H](N)CSSC[C@H](N)C(=O)N[C@@H](C)C(=O)N[C@@H](CC(C)C)C(=O)N[C@@H](CC(C)C)C(=O)N1CCC[C@H]1C(=O)N[C@@H](C)C(=O)N[C@H](C(=O)N1CCC[C@H]1C(=O)N[C@@H](CO)C(=O)N[C@@H](CC(C)C)C(=O)O)C(C)C)C(=O)N[C@@H](Cc1c[nH]cn1)C(=O)N[C@@H](CO)C(=O)N[C@@H](CCCNC(=N)N)C(=O)N[C@@H](CCCCN)C(=O)N[C@@H](Cc1c[nH]cn1)C(=O)N[C@H](C(=O)NCC(=O)O)[C@@H](C)O [formula (9)] (I: H-CNKRYFKLSHLQMHSRKHTG-OH / II: H-CALLPAVPSL-OH; disulfide I:1-II:1) | > 1000 | 565 | –
CRVPGVAPTL [Example 4] | – | – | formation rate (%) of the peptide obtained by trimming, 1 hr later [1]: 59.1%; formation rate (%) of the peptide obtained by trimming, 2 hr later [1]: 57.5%; formation rate (%) of the peptide obtained by trimming, 4 hr later [1]: 30.1%; formation rate (%) of the peptide obtained by trimming, 8 hr later [1]: 7.80%
CNKRYFKLSHLQMHSRKH [SEQ ID NO: 23] | > 1000 | 712 | –
CSLGEQQYSV [Example 5] | – | – | formation rate (%) of the peptide obtained by trimming, 1 hr later [1]: 77.6%; formation rate (%) of the peptide obtained by trimming, 2 hr later [1]: 72.8%; formation rate (%) of the peptide obtained by trimming, 4 hr later [1]: 46.0%; formation rate (%) of the peptide obtained by trimming, 8 hr later [1]: 7.90%
CNKRYFKLSHLQMHSRK [SEQ ID NO: 22] | > 1000 | 931 | –
CSCC[C@H](NC(=O)[C@H](CCCNC(=N)N)NC(=O)[C@@H](N)CSSC[C@H](N)C(=O)N[C@@H](CO)C(=O)N[C@@H](CC(C)C)C(=O)NCC(=O)N[C@@H](CCC(=O)O)C(=O)N[C@@H](CCC(N)=O)C(=O)N[C@@H](CCC(N)=O)C(=O)N[C@@H](Cc1ccc(O)cc1)C(=O)N[C@@H](CO)C(=O)N[C@H](C(=O)O)C(C)C)C(=O)N[C@@H](Cc1ccccc1)C(=O)N1CCC[C@H]1C(=O)N[C@@H](CC(N)=O)C(=O)N[C@@H](C)C(=O)N1CCC[C@H]1C(=O)N[C@@H](Cc1ccc(O)cc1)C(=O)N[C@@H](CC(C)C)C(=O)O [formula (3)] (I: H-CRMFPNAPYL-OH / II: H-CSLGEQQYSV-OH; disulfide I:1-II:1) | > 1000 | > 1000 | –
SLGEQQYSV [SEQ ID NO: 6] | > 1000 | > 1000 | –
CSCC[C@H](NC(=O)[C@H](CCC(N)=O)NC(=O)[C@H](CC(N)=O)NC(=O)[C@H](Cc1c[nH]c2ccccc12)NC(=O)[C@@H](NC(=O)[C@H](Cc1ccc(O)cc1)NC(=O)[C@@H](N)CSSC[C@H](N)C(=O)N[C@@H](CCCNC(=N)N)C(=O)N[C@@H](CCSC)C(=O)N[C@@H](Cc1ccccc1)C(=O)N1CCC[C@H]1C(=O)N[C@@H](CC(N)=O)C(=O)N[C@@H](C)C(=O)N1CCC[C@H]1C(=O)N[C@@H](Cc1ccc(O)cc1)C(=O)N[C@@H](CC(C)C)C(=O)O)[C@@H](C)O)C(=O)N[C@@H](CC(N)=O)C(=O)N[C@@H](CC(C)C)C(=O)O [formula (5)] (I: H-CRMFPNAPYL-OH / II: H-CYTWNQMNL-OH; disulfide I:1-II:1) | 511 | 200 | –
CSCC[C@H](NC(=O)[C@H](CCC(N)=O)NC(=O)[C@H](CC(C)C)NC(=O)[C@H](Cc1c[nH]cn1)NC(=O)[C@H](CO)NC(=O)[C@H](CC(C)C)NC(=O)[C@H](CCCCN)NC(=O)[C@H](Cc1ccccc1)NC(=O)[C@H](Cc1ccc(O)cc1)NC(=O)[C@H](CCCNC(=N)N)NC(=O)[C@H](CCCCN)NC(=O)[C@H](CC(N)=O)NC(=O)[C@@H](N)CSSC[C@H](N)C(=O)N[C@@H](CCCNC(=N)N)C(=O)N[C@@H](CCSC)C(=O)N[C@@H](Cc1ccccc1)C(=O)N1CCC[C@H]1C(=O)N[C@@H](CC(N)=O)C(=O)N[C@@H](C)C(=O)N1CCC[C@H]1C(=O)N[C@@H](Cc1ccc(O)cc1)C(=O)N[C@@H](CC(C)C)C(=O)O)C(=O)N[C@@H](Cc1c[nH]cn1)C(=O)N[C@@H](CO)C(=O)N[C@@H](CCCNC(=N)N)C(=O)N[C@@H](CCCCN)C(=O)O [formula (8)] (I: H-CNKRYFKLSHLQMHSRK-OH / II: H-CRMFPNAPYL-OH; disulfide I:1-II:1) | > 1000 | 789 | –
CSCC[C@H](NC(=O)[C@H](CCC(N)=O)NC(=O)[C@H](CC(C)C)NC(=O)[C@H](Cc1c[nH]cn1)NC(=O)[C@H](CO)NC(=O)[C@H](CC(C)C)NC(=O)[C@H](CCCCN)NC(=O)[C@H](Cc1ccccc1)NC(=O)[C@H](Cc1ccc(O)cc1)NC(=O)[C@H](CCCNC(=N)N)NC(=O)[C@H](CCCCN)NC(=O)[C@H](CC(N)=O)NC(=O)[C@@H](N)CSSC[C@H](N)C(=O)N[C@@H](CCCNC(=N)N)C(=O)N[C@@H](CCSC)C(=O)N[C@@H](Cc1ccccc1)C(=O)N1CCC[C@H]1C(=O)N[C@@H](CC(N)=O)C(=O)N[C@@H](C)C(=O)N1CCC[C@H]1C(=O)N[C@@H](Cc1ccc(O)cc1)C(=O)N[C@@H](CC(C)C)C(=O)O)C(=O)N[C@@H](Cc1c[nH]cn1)C(=O)N[C@@H](CO)C(=O)N[C@@H](CCCNC(=N)N)C(=O)N[C@@H](CCCCN)C(=O)N[C@@H](Cc1c[nH]cn1)C(=O)N[C@H](C(=O)NCC(=O)O)[C@@H](C)O [formula (6)] (I: H-CNKRYFKLSHLQMHSRKHTG-OH / II: H-CRMFPNAPYL-OH; disulfide I:1-II:1) | > 1000 | 279 | –
CNKRYFKLSHLQMHSRKHTG [SEQ ID NO: 24] | > 1000 | 556 | –
CSCC[C@H](NC(=O)[C@@H](N)CCCNC(=N)N)C(=O)N[C@@H](Cc1ccccc1)C(=O)N1CCC[C@H]1C(=O)N[C@@H](CC(N)=O)C(=O)N[C@@H](C)C(=O)N1CCC[C@H]1C(=O)N[C@@H](Cc1ccc(O)cc1)C(=O)N[C@@H](CC(C)C)C(=O)O [SEQ ID NO: 2] | > 1000 | > 1000 | –
ALLPAVPSL [SEQ ID NO: 5] | > 1000 | > 1000 | –
CYTWNQMNL [SEQ ID NO: 4] | – | – | solubility at 90 min ([3]; pH 6): 106 µg/mL; solubility thermodynamic at 90 min ([3]; pH 7.4): 167 µg/mL
